Holding throughout (format): functional
One assay relates to Candida albicans. Description: Antifungal activity against Candida albicans ATCC 10231 assessed as growth inhibition by broth microdilution method.
For a further assay, the system named is Enterococcus faecalis. Description: Antibacterial activity against Enterococcus faecalis ATCC 29212 assessed as growth inhibition by broth microdilution method.
In the next assay the test system is Escherichia coli. Description: Antibacterial activity against Escherichia coli ATCC 25922 assessed as growth inhibition by broth microdilution method.
The next assay has as its system Pseudomonas aeruginosa. As to the kind of experiment: Antibacterial activity against Pseudomonas aeruginosa ATCC 27853 assessed as growth inhibition by broth microdilution method. On the technique in general: In broth dilution the organism is exposed to a series of concentrations in liquid medium.
A further assay relates to Aspergillus niger. Description: Antifungal activity against Aspergillus niger ATCC 1015 assessed as growth inhibition by broth microdilution method.
The test system of a further assay is Staphylococcus aureus. As to the kind of experiment: Antibacterial activity against Staphylococcus aureus ATCC 25923 assessed as growth inhibition by broth microdilution method.

As a reminder, the MIC is the smallest concentration in the dilution series that meets the test's criterion for growth inhibition.

As for `COc1ccc(/C=C/C(=O)c2ccc(NC(=O)CSc3nc4ccccc4[nH]3)cc2)cc1OC`, the MIC is 125 µg/mL in the assay with Candida albicans; 250 µg/mL in the assay with Enterococcus faecalis; 31.2 µg/mL with Escherichia coli; 125 µg/mL with Pseudomonas aeruginosa; 62.5 µg/mL with Aspergillus niger; 62.5 µg/mL with Staphylococcus aureus.

As for `O=C(CSc1nc2ccccc2[nH]1)Nc1ccc(C(=O)/C=C/c2ccc([N+](=O)[O-])cc2)cc1`, the minimal inhibitory concentration (MIC) with Candida albicans came to 125 µg/mL; with Enterococcus faecalis it was 125 µg/mL; in the assay with Escherichia coli it was 62.5 µg/mL; in the assay on Pseudomonas aeruginosa, 125 µg/mL; in the assay on Aspergillus niger, 62.5 µg/mL; in the assay with Staphylococcus aureus, 62.5 µg/mL.

`CN(C)c1ccc(/C=C/C(=O)c2ccc(NC(=O)CSc3nc4ccccc4[nH]3)cc2)cc1`: the MIC came to 125 µg/mL in the assay on Candida albicans; 125 µg/mL in the assay on Enterococcus faecalis; 31.2 µg/mL with Escherichia coli; 125 µg/mL in the assay on Pseudomonas aeruginosa; 125 µg/mL in the assay with Aspergillus niger; 125 µg/mL in the assay on Staphylococcus aureus.

As to `O=C(CSc1nc2ccccc2[nH]1)Nc1ccc(C(=O)/C=C/c2ccc(Br)cc2)cc1`, the MIC in the assay on Candida albicans is 250 µg/mL; with Enterococcus faecalis, 125 µg/mL; in the assay on Escherichia coli, 31.2 µg/mL; in the assay on Pseudomonas aeruginosa, 125 µg/mL; in the assay with Aspergillus niger it was 125 µg/mL; in the assay on Staphylococcus aureus it was 125 µg/mL.

With `O=C(CSc1nc2ccccc2[nH]1)Nc1ccc(C(=O)/C=C/c2cccc(Cl)c2)cc1`, the minimum inhibitory concentration (MIC) amounted to 250 µg/mL in the assay with Candida albicans; 125 µg/mL in the assay on Enterococcus faecalis; 62.5 µg/mL in the assay on Escherichia coli; 125 µg/mL in the assay on Pseudomonas aeruginosa; 125 µg/mL with Aspergillus niger; 31.2 µg/mL in the assay on Staphylococcus aureus.

As for `O=C(CSc1nc2ccccc2[nH]1)Nc1ccc(C(=O)/C=C/c2cccc(Br)c2)cc1`, the MIC came to 250 µg/mL in the assay with Candida albicans; 250 µg/mL in the assay with Enterococcus faecalis; 62.5 µg/mL in the assay with Escherichia coli; 125 µg/mL in the assay on Pseudomonas aeruginosa; 250 µg/mL with Aspergillus niger; 31.2 µg/mL in the assay with Staphylococcus aureus.

As to `COc1cc(/C=C/C(=O)c2ccc(NC(=O)CSc3nc4ccccc4[nH]3)cc2)cc(OC)c1OC`, the MIC in the assay on Candida albicans is 125 µg/mL; with Enterococcus faecalis it was 250 µg/mL; in the assay with Escherichia coli, 31.2 µg/mL; in the assay on Pseudomonas aeruginosa, 125 µg/mL; with Aspergillus niger, 250 µg/mL; with Staphylococcus aureus, 31.2 µg/mL.

With `O=C(CSc1nc2ccccc2[nH]1)Nc1ccc(C(=O)/C=C/c2ccccc2[N+](=O)[O-])cc1`, the MIC came out at 250 µg/mL with Candida albicans; 250 µg/mL in the assay with Enterococcus faecalis; 31.2 µg/mL in the assay on Escherichia coli; 250 µg/mL with Pseudomonas aeruginosa; 250 µg/mL in the assay with Aspergillus niger; 31.2 µg/mL in the assay on Staphylococcus aureus.

Consider `COc1ccc(OC)c(/C=C/C(=O)c2ccc(NC(=O)CSc3nc4ccccc4[nH]3)cc2)c1`, for which the minimum inhibitory concentration (MIC) was found to be 250 µg/mL in the assay on Candida albicans; 125 µg/mL in the assay on Enterococcus faecalis; 31.2 µg/mL in the assay on Escherichia coli; 125 µg/mL in the assay with Pseudomonas aeruginosa; 125 µg/mL with Aspergillus niger; 31.2 µg/mL in the assay on Staphylococcus aureus.

As to `COc1cc(/C=C/C(=O)c2ccc(NC(=O)CSc3nc4ccccc4[nH]3)cc2)ccc1O`, the MIC came to 62.5 µg/mL in the assay on Candida albicans; 250 µg/mL in the assay on Enterococcus faecalis; 62.5 µg/mL in the assay with Escherichia coli; 250 µg/mL with Pseudomonas aeruginosa; 125 µg/mL in the assay with Aspergillus niger; 15.6 µg/mL in the assay on Staphylococcus aureus.

For the compound `O=C(CSc1nc2ccccc2[nH]1)Nc1ccc(C(=O)/C=C/c2c(O)ccc3ccccc23)cc1`, the MIC worked out at 125 µg/mL in the assay with Candida albicans; 250 µg/mL in the assay on Enterococcus faecalis; 62.5 µg/mL in the assay with Escherichia coli; 62.5 µg/mL with Pseudomonas aeruginosa; 62.5 µg/mL with Aspergillus niger; 62.5 µg/mL with Staphylococcus aureus.

Turning to `O=C(CSc1nc2ccccc2[nH]1)Nc1ccc(C(=O)/C=C/c2ccccc2O)cc1`, the minimal inhibitory concentration (MIC) in the assay on Candida albicans worked out at 62.5 µg/mL; in the assay on Enterococcus faecalis, 125 µg/mL; in the assay on Escherichia coli, 31.2 µg/mL; with Pseudomonas aeruginosa, 31.2 µg/mL; in the assay on Aspergillus niger, 125 µg/mL; with Staphylococcus aureus it was 62.5 µg/mL.

On to `COc1ccc(/C=C/C(=O)c2ccc(NC(=O)CSc3nc4ccccc4[nH]3)cc2)cc1`, for which the MIC stood at 125 µg/mL with Candida albicans; 250 µg/mL with Enterococcus faecalis; 62.5 µg/mL in the assay on Escherichia coli; 250 µg/mL with Pseudomonas aeruginosa; 125 µg/mL in the assay on Aspergillus niger; 31.2 µg/mL in the assay on Staphylococcus aureus.

Consider `O=C(CSc1nc2ccccc2[nH]1)Nc1ccc(C(=O)/C=C/c2ccc(O)cc2)cc1`, for which the MIC in the assay with Candida albicans was found to be 125 µg/mL; in the assay with Enterococcus faecalis it was 125 µg/mL; in the assay on Escherichia coli it was 62.5 µg/mL; in the assay with Pseudomonas aeruginosa it was 250 µg/mL; in the assay on Aspergillus niger, 125 µg/mL; with Staphylococcus aureus, 31.2 µg/mL.

As for `O=C(CSc1nc2ccccc2[nH]1)Nc1ccc(C(=O)/C=C/c2ccccc2)cc1`, the MIC with Candida albicans was 250 µg/mL; with Enterococcus faecalis, 250 µg/mL; in the assay on Escherichia coli, 125 µg/mL; in the assay on Pseudomonas aeruginosa, 250 µg/mL; in the assay with Aspergillus niger, 125 µg/mL; with Staphylococcus aureus it was 250 µg/mL.

With `O=C(CSc1nc2ccccc2[nH]1)Nc1ccc(C(=O)/C=C/c2ccc(Cl)cc2)cc1`, the minimal inhibitory concentration (MIC) amounted to 250 µg/mL in the assay on Candida albicans; 250 µg/mL in the assay with Enterococcus faecalis; 62.5 µg/mL in the assay with Escherichia coli; 125 µg/mL in the assay on Pseudomonas aeruginosa; 125 µg/mL in the assay on Aspergillus niger; 125 µg/mL in the assay with Staphylococcus aureus.

For the compound `O=C(O)c1cn(C2CC2)c2cc(N3CCNCC3)c(F)cc2c1=O` [CIPROFLOXACIN], the MIC in the assay on Enterococcus faecalis was determined as 125 µg/mL; in the assay on Escherichia coli, 125 µg/mL; in the assay on Pseudomonas aeruginosa it was 125 µg/mL; in the assay with Staphylococcus aureus it was 62.5 µg/mL.

With `OC(Cn1cncn1)(Cn1cncn1)c1ccc(F)cc1F` [FLUCONAZOLE], the MIC in the assay on Candida albicans stood at 125 µg/mL; with Aspergillus niger, 62.5 µg/mL.

For the origin of these results see ChEMBL document CHEMBL3046776, “Antibacterial and antifungal screening of newly synthesized benzimidazole-clubbed chalcone derivatives” (2013).
